Experimental data from patent US20260132103A1, “Bumetanide Derivatives for the Therapy of Stroke and Other Neurological Diseases/Disorders Involving NKCCs” (University of Pittsburgh - Of the Commonwealth System of …, priority 2018, published 2026).

Assays:
[1] = system: permanent focal cerebral ischemia (pdMCAO) in AngII-induced hypertensive mice; assay: Brain infarct volume and swelling after pdMCAO in AngII-induced hypertensive mice; format: in vivo, mouse; conditions: 24 h post-pdMCAO, i.p., half dose at 3 h and 8 h after pdMCAO
Method: FIG. 3: Effects of NKCC1 inhibitors against the worsened ischemic stroke in AngII-induced hypertensive mice after pdMCAO (see Example 3). (A) Experimental protocol in AngII-induced hypertensive C57/B6 mice. Permanent distal middle cerebral artery occlusion (pdMCAO) was induced in mice at day 14 post-AngII infusion. DMSO, BMT or STS66 was administered in mice via i.p. with the initial half dose at 3 h and the second half dose at 8 h after pdMCAO. (B) Representative TTC-stained mouse coronal brain sections at 2-8 mm posterior of the frontal pole were shown. TTC staining was performed at 24 h post pdMCAO. Scale: 5 mm. (C) Brain infarct volume was calculated. Data are mean±SD. Saline (n=4), AngII (n=5); *p<0.05 vs. saline control.
Permanent focal cerebral ischemia was induced by permanent occlusion of the distal middle cerebral artery (pdMCAO) in mice (Suenaga J, et al., 2015). Under anesthesia as described above, a skin incision at the midline of the neck was made. After being separated from the vagal nerve, the left CCA was exposed and occluded by ligation and the skin was sutured. Another skin incision (1 cm) was made between the left eye and the ear using fine operation scissors. The temporal muscle was identified and detached from the skull in its apical and dorsal part without totally removing the muscle by using the forceps. The MCA below the transparent skull in the rostral part of the temporal area, dorsal to the retro-orbital sinus was identified. If the MCA bifurcation is not visible (due to an anatomical normal variation), the vessel most rostral was identified. The skull above the MCA branch was thinned out with the drill until it has a thin and translucent texture. The artery, proximal and distal to the MCA bifurcation, was coagulated with the electrocoagulation forceps (in a bipolar mode at 7 W). The temporal muscle was relocated to its position and the burr hole was covered with wax and the skin wound was sutured and infiltrated with analgesia bupivacaine (100 μl 0.25%) topically. The animal was placed in a cage and monitored for recovery from anesthesia. […]
At 24 h post-reperfusion, mice were anesthetized with 5% isoflurane and then decapitated. […] Ischemic lesions were traced in each slice in a blinded manner, and the total volume of infarction was calculated with correction for edema, as described by Swanson et al., 1990 using ImageJ software. […] Brain swelling was determined with the following formula. […]
The efficacy of NKCC1 inhibitors was then tested in AngII-induced hypertensive mice after permanent MCAO model (pdMCAO), which is more clinically relevant to the majority ischemic stroke patients (McBride D W, et al., 2017). Brain infarct volume and swelling were measured at 24 h after pdMCAO. […]

[2] = system: transient focal cerebral ischemia (tMCAO) in mice; assay: Neurological score after tMCAO; format: in vivo, mouse
Description: FIGS. 2A-2D: Efficacy of NKCC1 inhibitors on improving neurological function in mice after tMCAO (see Example 3). (A) Neurological score, (B) corner test, (C) foot-fault test, and (D)-(E) adhesive tape test during 1-14 day after tMCAO. Data are mean±SD, n=4-9. *p<0.05 for DMSO vs STS66, **p<0.05 for DMSO vs STS5, ***p<0.05 for DMSO vs BMT, #p<0.05 for BMT vs STS66, ###p<0.05 for STS5 vs STS66.
Transient focal cerebral ischemia was induced in mice by intraluminal occlusion of the left middle cerebral artery (MCA) for 50 min as described previously (Chen H et al., 2005). Mice were anesthetized with 3% isoflurane in 70%: 30% N2O/O2 until they were unresponsive to the tail pinch test. Animals were then fitted with a nose cone blowing 1.5% isoflurane for anesthesia maintenance. The left common carotid artery was exposed and the occipital artery branches of the external carotid artery were isolated and coagulated. The internal carotid artery was isolated and the extracranial branch was dissected and ligated. A rubber silicon-coated monofilament suture (6-0) was introduced into the internal carotid artery lumen and gently advanced approximately 8-9 mm to block the MCA blood flow for 50 min. The rectal temperature was maintained at 37.0±0.5° C. during surgery through a temperature-controlled heating pad. Achievement of ischemia was confirmed by monitoring regional cerebral blood flow (rCBF) with laser speckle contrast imager (Pericam). For reperfusion, the suture was withdrawn after the MCAO. The incision was closed and the mouse recovered under a heating lamp to maintain the core temperature (36.0-37.0° C.) during the 30-60 min recovery period. After recovery, animals were returned to their cages with free access to food and water.
Vehicle: DMSO (2 ml/kg body weight/day), the NKCC1 inhibitor bumetanide (BMT, 10 mg/kg body weight/day in DMSO), bumetanide's prodrug STS5 (13 mg/kg body weight/day in DMSO), or the novel NKCC1 inhibitor STS66 according to the invention (12 mg/kg body weight/day in DMSO) was administered via intraperitoneal injection (i.p). The initial half dose of the drugs (BMT, STS5, STS66) was given at 3 h after the onset of reperfusion and the second half dose at 8 h reperfusion in the tMCAO model.
Neurological deficit grading system was used to evaluate neurological deficit at 1, 2, 3, 5, 7, 10 and 14 days after tMCAO as described previously (Bederson J B et al,1986).

| SMILES | brain swelling (edema) [1] [%] | infarct volume [1] [mm^3] | neurological deficit score ([2]; day 5) | neurological deficit score ([2]; day 10) | neurological deficit score ([2]; day 1 post-reperfusion) | neurological deficit score ([2]; day 14 post-reperfusion) |
| --- | --- | --- | --- | --- | --- | --- |
| CCCCNc1cc(C(=O)O)cc(S(N)(=O)=O)c1Oc1ccccc1 [BMT, 3-(butylamino)-4-phenoxy-5-sulfamoylbenzoic acid, reference compound] | 7.1±1.1 | 22.4±2.9 | 3.8±0.4 | 2.5±0.5 |  |  |
| CCCCNc1cc(CNCC(F)(F)F)cc(S(N)(=O)=O)c1Oc1ccccc1 [STS66, 3-(Butylamino)-2-phenoxy-5-[(2,2,2-trifluoroethylamino)methyl]benzenesulfonamide] | 2.4±1.1 | 13.3±2.5 |  |  | 4.0±0.0 | 1.2±0.4 |
